This passage reports IC50 results from ChEMBL document CHEMBL2158001, “Lead optimization studies towards the discovery of novel carbamates as potent AChE inhibitors for the potential treatment of Alzheimer's disease” (Bioorg Med Chem, 2012).

The test addresses T1, Acetylcholinesterase (Mus musculus, UniProt P21836).
T1 sequence (P21836 whole entry): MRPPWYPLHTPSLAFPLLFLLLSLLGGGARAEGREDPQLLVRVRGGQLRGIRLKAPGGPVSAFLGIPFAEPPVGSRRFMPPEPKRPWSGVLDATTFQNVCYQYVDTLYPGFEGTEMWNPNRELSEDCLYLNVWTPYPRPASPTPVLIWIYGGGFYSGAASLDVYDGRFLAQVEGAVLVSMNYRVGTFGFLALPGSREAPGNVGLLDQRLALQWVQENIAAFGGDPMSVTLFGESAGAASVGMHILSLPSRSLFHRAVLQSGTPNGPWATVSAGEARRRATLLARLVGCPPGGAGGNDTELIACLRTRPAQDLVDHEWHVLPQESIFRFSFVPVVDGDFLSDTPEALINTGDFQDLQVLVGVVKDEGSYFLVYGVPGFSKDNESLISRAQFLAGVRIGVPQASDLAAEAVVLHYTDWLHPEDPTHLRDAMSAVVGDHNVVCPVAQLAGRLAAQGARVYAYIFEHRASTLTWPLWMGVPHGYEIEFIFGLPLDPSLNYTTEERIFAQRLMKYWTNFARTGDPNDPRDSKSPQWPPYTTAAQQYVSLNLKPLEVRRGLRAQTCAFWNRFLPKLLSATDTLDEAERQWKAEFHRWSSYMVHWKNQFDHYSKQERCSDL

A word on the pIC50: it is the negative decadic logarithm of the IC50, by convention in mol/L. Read a low pIC50 as a large IC50.

pIC50: −log10 of the molar value.

Description: Inhibition of Swiss albino mouse RBC AChE after 30 mins by Ellman method

As for `CCCCCCCCNC(=O)Oc1ccc2c(c1)CCCN2Cc1ccc(Cl)cc1Cl`, the pIC50 was less than 2.00. For `Cc1ccccc1NC(=O)Oc1ccc2c(c1)CCCN2Cc1ccccc1`, the pIC50 was 4.84. `Cc1cccc(NC(=O)Oc2ccc3c(c2)CCCN3Cc2ccccc2)c1` gave a pIC50 of 4.22. In turn, `O=C(Nc1cccc(Cl)c1)Oc1ccc2c(c1)CCCN2Cc1ccc(Cl)cc1Cl` had a pIC50 of 3.68. The compound `O=C(Nc1ccc(Cl)cc1)Oc1ccc2c(c1)CCCN2Cc1ccc(Cl)cc1Cl` gave a pIC50 of 2.46.

As to `O=C(Nc1cccc(Br)c1)Oc1ccc2c(c1)CCCN2Cc1ccc(Cl)cc1Cl`, the pIC50 was 3.85. To `COc1ccccc1NC(=O)Oc1ccc2c(c1)CCCN2Cc1ccc(Cl)cc1Cl` belongs 4.86. To `O=C(Nc1ccccc1F)Oc1ccc2c(c1)CCCN2Cc1ccc(Cl)cc1Cl` belongs 5.59; to `O=C(Nc1ccc(F)cc1)Oc1ccc2c(c1)CCCN2Cc1ccc(Cl)cc1Cl`, 4.05; to `CCCCCCNC(=O)Oc1ccc2c(c1)CCCN2Cc1ccc(Cl)cc1Cl`, 4.85. For `CCCCCCCNC(=O)Oc1ccc2c(c1)CCCN2Cc1ccc(Cl)cc1Cl`, the pIC50 was 3.98. On to `Cc1ccccc1NC(=O)Oc1ccc2c(c1)CCCN2Cc1ccc(Cl)cc1Cl`, for which the negative logarithm of the IC50 (pIC50) was 5.59. `Cc1cccc(NC(=O)Oc2ccc3c(c2)CCCN3Cc2ccc(Cl)cc2Cl)c1` gave a negative logarithm of the IC50 (pIC50) of 6.15. Regarding `Cc1ccc(NC(=O)Oc2ccc3c(c2)CCCN3Cc2ccc(Cl)cc2Cl)cc1`, the negative-log IC50 (pIC50) is 3.07. As for `O=C(Nc1ccccc1Cl)Oc1ccc2c(c1)CCCN2Cc1ccc(Cl)cc1Cl`, the negative-log IC50 (pIC50) is 4.93.
